Test results reported in patent US20240418723A1, “SEQUENTIAL TREATMENTS AND BIOMARKERS TO REVERSE RESISTANCE TO KINASE INHIBITORS” (Queen Mary University of London, priority 2021, published 2024).

Key:
P31/Fuj AML cells = experiment: Sequential treatment of P31/Fuj cells (ATRA or LSD1 inhibitor 5 days, then MEKi 3 days; also co-treatment and reverse treatment): cell viability, cell number, apoptosis, CDI; type: cell-based; details: for drug interaction with MEKi in sequential treatment (CDI): alternative LSD1 inhibitor 5 days then trametinib 3 days, P31/Fuj cells (FIGS. 10 D, E)
Protocol: The Bliss independence model was used to derive coefficients of drug interaction (CDI) values, where CDI <1 indicates significant priming by the […] (synergistic effect).
For the proliferation/viability assays, cells were seeded in T75 flasks (0.5×10^6 cells/mL of RPMI/FBS medium) and exposed for 5 days to either vehicle or epigenetic modifier. Unless otherwise specified, the final concentration for GSK2879552 (LSD1i), […] (EZH2i), pinometostat (DOT1Li) and ATRA was 1 μM while for decitabine (DNMTAi) and vorinostat (HDACi) was 100 nM; all epigenetic inhibitors were diluted in DMSO, while ATRA was diluted in Et-OH. Vehicle concentration was kept at 0.1%. […] The final concentration of DMSO was kept at 0.1%. Finally, cells were transferred to 96-well plates (100 μL per well in 3 technical replicates per condition) and cell viability and proliferation were assessed using Guava and ApoTox-Glo Triplex analyses, as indicated below.
For Guava analysis, cells were stained with Guava ViaCount reagent (Luminex #4000-0040) in 96-well plates, by mixing 150 μL of cell suspension with 75 μL of reagent, and left to incubate for a minimum of 10 minutes in the dark, after which they were processed through a Guava easyCyte flow cytometer (Luminex #0500-5005). Flow cytometry data were analysed using CytoSoft (v2.5.7). Viability and cell number values were expressed relative to vehicle control.
For ApoTox-Glo analysis, cell suspensions were transferred to opaque 96-well plates (100 μL per well) and viability and apoptosis measured using ApoTox-Glo Triplex Assay (Promega #G6320). 20 μL of Viability/Cytotoxicity reagent (containing GF-AFC and bis-AAF-R110 substrates) were added to each well, then incubated at 37° C. for 1 hour. Live cell and cytotoxicity outputs were measured on FLUOstar Omega microplate reader (BMG Labtech). To obtain the live cell output, fluorescence was measured at 355EX/520EM (wavelengths in nm); for the cytotoxicity output, fluorescence was measured at 485EX/520EM. Following this, 100 μL of Caspase-Glo 3/7 reagent were added to each well and incubated at 25° C. for 1 hour. Luminescence was then measured on FLUOstar Omega microplate reader (BMG Labtech). The fluorescence and luminescence signals thus obtained were corrected to the respective background controls (culture medium with no cells). Relative cell number values were obtained by normalising live cell outputs to vehicle control. Apoptosis values were obtained by dividing luminescence outputs to the respective live cell outputs, then normalising to vehicle control.
The extent of drug interaction was calculated in Microsoft Excel 2016 using the CDI formula AB/(A*B), where AB is the normalized reduction in cell viability of the sequential treatment, and A and B are the effects of single treatments. Statistical significance of CDI values for each AML sample was determined using a one sample t-test (base R package) with the null hypothesis being that the mean Log2(CDI) equals 0.

P31/Fuj cells = experiment: Phosphoproteomics (LC-MS/MS) and kinase network analysis of treated P31/Fuj cells
Protocol: To study ATRA effect over the phosphoproteome, P31/Fuj cells (10×10^6 cells at 0.5×10^6 cell/mL) were seeded in T75 flask and treated with either Et-OH, 1 μM ATRA or 10 μM ATRA for 5 days. […] For both experiments, cells were collected by centrifugation (1500 rpm for 5 min at 5° C.), then cell pellets were washed twice with ice cold PBS supplemented with phosphatase inhibitors (1 mM Na3VO4, 1 mM NaF) and stored at −80° C. Pellets were processed for phosphoproteomics analysis as indicated below.
In brief, cell pellets were lysed in 300 μL of urea buffer (8 M urea in 20 mM HEPES, pH 8.0, supplemented with 1 mM Na3VO4, 1 mM NaF, 1 mM Na4P2O7 and 1 mM P-glycerophosphate). Lysates were further homogenized by sonication (30 cycles of 30 s on 30 s off; Diagenode Bioruptor® Plus) and insoluble material was removed by centrifugation. Protein was quantified using BCA (Thermo Fisher Scientific). Then, 500 μg of protein were subjected to cysteine alkylation using sequential incubation with 10 mM dithiothreitol (DDT) and 16.6 mM iodoacetamide (IAM) for 1 h and 30 min, respectively, at 25° C. with agitation. Trypsin beads (50% slurry of TLCK-trypsin; Thermo Fisher Scientific; Cat. #20230) were equilibrated with 3 washes with 20 mM HEPES (pH 8.0), the urea concentration in the protein suspensions was reduced to 2 M by the addition of 20 mM HEPES (pH 8.0), 100 μL of equilibrated trypsin beads were added and the samples were incubated overnight at 37° C. Trypsin beads were removed by centrifugation (2000×g at 5° C. for 5 min) and the resulting peptide solutions were desalted through Oasis HLB cartridges (Waters) following the manufacturer's indications. Briefly, cartridges were set in a vacuum manifold device and the pressure was adjusted to 5 mmHg. Then, cartridges were conditioned with 1 mL acetonitrile (ACN) and equilibrated with 2.5 mL of wash solution (0.1% trifluoroacetic acid (TFA), 2% ACN). Peptides were loaded in the cartridges and washed with 1 mL of wash solution. Finally, peptides were eluted with 500 μL of glycolic acid buffer 1 (1 M glycolic acid, 5% TFA, 50% ACN). Enrichment of phosphorylated peptides was performed with TiO2 Beads (GL Sciences). The eluents were normalized to 1 mL with glycolic acid buffer 2 (1 M glycolic acid, 5% TFA, 80% ACN) and incubated with 50 μl of TiO2 buffer (50% slurry in 1% TFA) for 5 min at room temperature. TiO2 beads were packed by centrifugation into empty spin columns (Glygen Corporation; Cat. TT2EMT) previously washed with ACN. TiO2 beads were sequentially washed by centrifugation (1500×g for 3 min) with 100 μL of glycolic acid buffer 2, ammonium acetate solution (100 mM ammonium acetate in 25% ACN) and twice with neutral solution (10% ACN). For phosphopeptide elution, spin tips were transferred to fresh tubes, 50 μL of elution solution (5% NH4OH, 7.5% ACN) were added and tips were centrifuged at 1500×g for 3 min. The elution step was repeated a total of 4 times. Finally, samples were snap frozen, dried in a SpeedVac and phosphopeptide pellets were stored at −80° C.

For Cl.Cl.NC1CCC(N[C@@H]2C[C@H]2c2ccccc2)CC1 (relative stereo) [ORY-1001, rel-N1-[(1R,2S)-2-phenylcyclopropyl]-1,4-cyclohexanediamine, dihydrochloride], the “drug interaction with MEKi in sequential treatment (CDI)” value (P31/Fuj AML cells) was “synergistic interactions with MEKi”.

With CC1=C(/C=C/C(C)=C/C=C/C(C)=C/C(=O)O)C(C)(C)CCC1 [ATRA, all-trans-retinoic acid] the “sensitisation to MEKi (trametinib) treatment, cell viability” value (P31/Fuj AML cells; ATRA pre-treatment for five days, then trametinib, P31/Fuj cells (FIG. 2B)) was “sensitised myeloid P31/Fuj cells to MEKi treatment”, the “phosphorylation of the MAPK and PI3K pathway markers ERK1 pY204 and c-MYC pT58/pS62” value (P31/Fuj cells; ATRA 1 or 10 μM, 5 days, P31/Fuj cells (FIG. 9B)) was “decreased” and the “phosphorylation of CEBPE and LTB4R” value (P31/Fuj cells; ATRA 1 or 10 μM, 5 days, dose-dependent manner, P31/Fuj cells (FIG. 9B)) was “increasing”. The “axes containing CDKL5 and stress kinases such as STK4” value (P31/Fuj cells; ATRA 5 days, P31/Fuj cells) was “increasing” and the “phosphorylation of MAPK1 and PI3K signaling axes” value (P31/Fuj cells; ATRA 5 days, P31/Fuj cells) was “decreased”.

For COc1ccc(-c2c(-c3ccc(C#N)c(F)c3)nc(N3CCC(N)CC3)n(C)c2=O)cc1F [CC-90011], the “drug interaction with MEKi in sequential treatment (CDI)” value (P31/Fuj AML cells) was “synergistic interactions with MEKi”.
